Assay results reported in publication PMC12670426 (Journal of Medicinal Chemistry, 2025).
Read-outs that look alike come from different tables or passages of the source.

Assays:
[1] = Plasma stability assay, rat plasma; format: in vitro ADME; details: 37 °C
Experimental: (§1) Test compounds (10 μM) were incubated with mouse, rat, or human pooled plasma from 50 donors (Biowest) at 37 °C for 20, 60, and 120 min. Reactions were terminated by adding four volumes of ice-cold methanol, followed by vigorous mixing. Samples were kept at −20 °C for 30 min and then stored at 4 °C overnight. The next day, samples were centrifuged, and supernatants were diluted with four volumes of 30% methanol in water. Zero time points were prepared by adding ice-cold methanol to the compound prior to the addition of plasma. Samples were then analyzed on an Echo MS system (SCIEX) using multiple reaction monitoring (MRM). The only exception was compound 3af, which was analyzed by LC–MS/MS (SCIEX 6500 triple quadrupole) due to its weak ionization in Echo-MS.

[2] = molecular target: T1, human galectin-1 (Gal-1, full length) (Homo sapiens, UniProt P09382); assay: Competitive fluorescence polarization assay, Gal-1; format: binding
T1 construct: Gal-1 is a prototype galectin consisting of a single CRD and was used in full length; 6xHis tag with TEV protease site (N, cleaved yes); made in house; host or cells: BL21 Escherichia coli (pET-15b)
Experimental: (§2) Our investigation of the structure–activity relationship of N-aryl-N-lactosylamides started with an initial screening of substituted acetanilides (Table ). These compounds can be readily synthesized from a wide range of commercially available substituted anilines. Affinity was evaluated using a fluorescence polarization assay, which enables reliable determination of dissociation constants (K d) between small molecules and galectins. All inhibitors in this series were tested against the two most common human galectins: Gal-1 and Gal-3. Gal-1 is a prototype galectin consisting of a single CRD and was used in full length. In the case of Gal-3, which consists of the C-terminal CRD and N-terminal unfolded region, only the C-terminal domain was used (Gal-3C). Affinities were compared to methyl β-lactoside (β-LacOMe) as a baseline.
(§3) Fluorescence polarization experiments for determining inhibitor affinities were performed using the same instrumentation and settings as described for the direct binding experiments. […] The galectin–probe mixture was subsequently added using a Certus Flex liquid handler (Fritz Gyger AG, Switzerland) to reach a final volume of 5 μL. Anisotropy was measured after 30–60 min incubation at 25 °C. Inhibitor dissociation constants (K d) were calculated using Wang’s exact cubic model for competitive binding implemented in the BindCurve package. Protein and probe concentrations used in these competitive experiments are provided in the Supporting Information.
(§4) Competitive binding was modeled by Wang’s exact cubic model,3 which is written as […]
(§5) r = rmin + (rmax − rmin) 3 (6) […]
(§6) where r, rmin and rmax have the same meaning as in Equation 1. The coefficients a, b, and c are […]
(§7) a = Kd∗ + Kd + [L∗]T + [L]T − [R]T (7) b = Kd∗([L]T − [R]T) + Kd([L∗]T − [R]T) + Kd∗ Kd (8) […]
(§8) where Kd∗ is the dissociation constant of the probe, Kd is the dissociation constant of the […]
(§9) the unlabeled ligand, and [R]T is the total concentration of the receptor. The angle θ is defined […]
(§10) In the competitive binding experiments, the values of [L∗]T, [R]T and Kd∗ are known and [L]T is titrated. The values of minimal and maximal anisotropy rmin and rmax were fixed during fitting at the values of the minimal and maximal asymptotes obtained from the direct binding experiments. The value of Kd was calculated as the only unfixed parameter in the model.
(§11) Experimental constants used for the competitive fluorescence polarization experiments are […]
(§12) Table S2. Experimental constants used for competitive fluorescence polarization experiments. […]

[3] = Plasma stability assay, human plasma; format: in vitro ADME; details: pooled plasma, 37 °C
Experimental: as §1

[4] = Plasma protein binding assay (rapid equilibrium dialysis), mouse plasma; format: in vitro ADME; details: fraction bound, read-out: plasma protein binding Fb mouse (converted)
Experimental: (§13) Test compound (10 μM) was incubated at 37 °C for 4 h with mouse, rat, or human plasma (Biowest) in the donor well of a rapid equilibrium dialysis plate (Thermo Fisher Scientific). PBS was placed in the acceptor well. To stop the assay, samples were collected from both wells, and an equal volume of plasma was added to the PBS sample, and vice versa. Proteins were then precipitated by adding three volumes of ice-cold methanol. Samples were mixed gently, kept at −20 °C for 30 min, and then stored at 4 °C overnight. The next day, the samples were centrifuged, and the supernatants were diluted with four volumes of 30% methanol in water. The samples were then analyzed using the Echo-MS system (SCIEX) with MRM transition monitoring, except for compound 3af, which was analyzed by LC–MS/MS as described in the plasma stability assay.

[5] = Plasma protein binding assay (rapid equilibrium dialysis), rat plasma; format: in vitro ADME; details: fraction bound, read-out: plasma protein binding Fb rat (converted)
Experimental: as §13

[6] = Microsomal stability assay, mouse liver microsomes; format: in vitro ADME; details: pooled liver microsomes, pH 7.4, mouse liver microsomes 0.5 mg/mL, NADPH
Experimental: (§14) Microsomal stability was determined using 0.5 mg/mL of pooled human, mouse, or rat liver microsomes (Thermo Fisher Scientific) in 90 mM TRIS-Cl buffer (pH 7.4) containing 2 mM NADPH and 2 mM MgCl2. Test compounds (10 μM) were added, and the resulting mixture was incubated at 37 °C for 10, 60, 120, and 180 min. The reactions were terminated by the addition of four volumes of ice-cold methanol, followed by vigorous mixing. The samples were left at −20 °C for 30 min and then stored at 4 °C overnight. The next day, samples were centrifuged, and supernatants were diluted with four volumes of 30% methanol in water. Zero time points were prepared by adding ice-cold methanol to the mixture of compounds and cofactors prior to the addition of microsomes. The samples were then analyzed using the Echo-MS system (SCIEX) with MRM transition monitoring, except for compound 3af, which was analyzed by LC–MS/MS as described in the plasma stability assay.

[7] = molecular target: T2, human galectin-3C (Gal-3C, C-terminal CRD of galectin-3) (Homo sapiens, UniProt P17931); assay: Competitive fluorescence polarization assay, Gal-3C; format: binding
T2 construct: only the C-terminal domain was used (Gal-3C); 6xHis tag with TEV protease site (N, cleaved yes); made in house; host or cells: BL21 Escherichia coli (pET-15b)
Experimental: as §2, §3, §4, §5, §6, §7, §8, §9, §10, §11, §12

[8] = Plasma protein binding, summary across species; format: in vitro ADME; details: summary across human, mouse and rat plasma
Experimental: as §13

[9] = Plasma protein binding assay (rapid equilibrium dialysis), human plasma; format: in vitro ADME; details: fraction bound, read-out: plasma protein binding Fb human (converted)
Experimental: as §13

[10] = Microsomal stability assay, rat liver microsomes; format: in vitro ADME; details: pooled liver microsomes, pH 7.4, rat liver microsomes 0.5 mg/mL, NADPH
Experimental: as §14

[11] = Plasma stability assay, mouse plasma; format: in vitro ADME; details: 37 °C
Experimental: as §1

[12] = Kinetic solubility assay in PBS; format: physicochemical; details: aqueous buffer, kinetic from dmso stock; PBS at pH 7.4, 100 μM final, 2 h room temperature
Experimental: The solutions were incubated at room temperature for 2 h and filtered by centrifugation. Filtrates were diluted 100-fold with 50% acetonitrile in water and then analyzed on the Echo-MS system (SCIEX) using MRM transition monitoring, except for compound 3af, which was analyzed by LC–MS/MS as described in the plasma stability assay. Compound concentrations were quantified against calibration curves prepared in the identical matrix as the samples.

[13] = Microsomal stability assay, human liver microsomes; format: in vitro ADME; details: pooled liver microsomes, pH 7.4, human liver microsomes 0.5 mg/mL, NADPH
Experimental: as §14

[14] = CSV supplement, unrounded mean, read-out: Gal1_IC50_mean_uM
[15] = CSV supplement, unrounded mean, read-out: Gal1_Kd_mean_uM
[16] = competitive fluorescence polarization, mean ± SD, read-out: Kd Gal-1
[17] = four-parameter logistic model, mean ± SD, read-out: IC50 Gal-1
[18] = CSV supplement, unrounded mean, read-out: Gal3C_IC50_mean_uM
[19] = CSV supplement, unrounded mean, read-out: Gal3C_Kd_mean_uM
[20] = competitive fluorescence polarization, mean ± SD, read-out: Kd Gal-3C
[21] = four-parameter logistic model, mean ± SD, read-out: IC50 Gal-3C

T2 sequence (P17931 118-248 limits assumed): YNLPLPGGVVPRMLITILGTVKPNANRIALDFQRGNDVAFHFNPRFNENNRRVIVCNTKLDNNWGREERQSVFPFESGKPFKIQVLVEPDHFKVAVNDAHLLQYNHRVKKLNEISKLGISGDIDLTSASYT
T1 sequence (P09382 2-135): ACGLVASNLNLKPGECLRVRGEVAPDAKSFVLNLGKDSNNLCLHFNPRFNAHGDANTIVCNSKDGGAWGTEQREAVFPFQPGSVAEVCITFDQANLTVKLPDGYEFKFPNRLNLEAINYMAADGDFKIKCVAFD

remaining at 2 h, 10 μM [1] | IC50 [2, 14] | Kd [2, 15] | Kd [2, 16] | IC50 [2, 17] | remaining at 2 h, 10 μM [3] | fraction unbound at 4 h, 10 μM [4] | fraction unbound at 4 h, 10 μM [5] | microsomal CLint at 10 μM [6] | IC50 [7, 18] | Kd [7, 19] | Kd [7, 20] | IC50 [7, 21] | fraction unbound at 4 h, 10 μM [8] | fraction unbound at 4 h, 10 μM [9] | microsomal CLint at 10 μM [10] | remaining at 2 h, 10 μM [11] | solubility kinetic at 2 h [12] | microsomal CLint at 10 μM [13] | Compound | other results
94% | 1530 µM | 846 µM | 850 ± 200 µM | 1500 ± 300 µM | 100% | > 0.95 | 0.73 | < 2 µL/min/mg | 11.4 µM | 4.15 µM | 4.1 ± 0.4 µM | 11 ± 0.9 µM | > 0.9 | > 0.95 | < 2 µL/min/mg | 76% | > 100 µM | 3 µL/min/mg | CC(=O)N(c1cc(C(=O)O)cc2[nH]ccc12)[C@@H]1O[C@H](CO)[C@@H](O[C@@H]2O[C@H](CO)[C@H](O)[C@H](O)[C@H]2O)[C@H](O)[C@H]1O [Compound 3af, N-[4-O-(β-D-Galactopyranosyl)-β-D-glucopyranosyl]-N-(6-carboxy-1H-indol-4-yl)acetamide] | enhancement of affinity for Gal-3C compared to 3r ([7]; compared to 3r): 10 fold; improvement in affinity toward Gal-3C compared to 3a ([7]; compared to unsubstituted phenyl derivative 3a): 27 fold; improvement in affinity toward Gal-3C compared to β-LacOMe ([7]; compared to β-LacOMe): 56 fold; selectivity for Gal-3C over Gal-1 ([7]; ratio Kd (Gal-1)/Kd (Gal-3C)): more than 200 fold
140 ± 7% | 1240 µM | 737 µM | 740 ± 20 µM | 1200 ± 300 µM | 99 ± 8% | 0.93 | 0.94 | < 2 µL/min/mg | 32.2 µM | 11.4 µM | 11 ± 2 µM | 32 ± 2 µM | > 0.9 | 0.94 | < 2 µL/min/mg | 110 ± 2% | > 100 µM | < 2 µL/min/mg | CC(=O)N(c1cc(O)cc(C(=O)O)c1)[C@@H]1O[C@H](CO)[C@@H](O[C@@H]2O[C@H](CO)[C@H](O)[C@H](O)[C@H]2O)[C@H](O)[C@H]1O [Compound 3ad, N-[4-O-(β-D-Galactopyranosyl)-β-D-glucopyranosyl]-N-(3-carboxy-5-hydroxyphenyl)acetamide] | –
110 ± 5% | 7.16 µM | 3.62 µM | 3.6 ± 0.4 µM | 7.2 ± 0.6 µM | 92 ± 6% | 0.78 | 0.75 | < 2 µL/min/mg | 0.154 µM | 0.0315 µM | 0.031 ± 0.004 µM | 0.15 ± 0.009 µM | 0.1 to 0.78 | 0.66 | < 2 µL/min/mg | 89 ± 5% | > 100 µM | < 2 µL/min/mg | CC(=O)c1c[nH]c2cc(C(=O)O)cc(N(C(C)=O)[C@@H]3O[C@H](CO)[C@@H](S[C@@H]4O[C@H](CO)[C@H](O)[C@H](n5cc(-c6cccc(F)c6)nn5)[C@H]4O)[C@H](O)[C@H]3O)c12 [Compound 10, N-[4-S-(3-Deoxy-3-(4-(3-fluorophenyl)-1H-1,2,3-triazol-1-yl)-β-D-galactopyranosyl)-4-thio-β-D-glucopyranosyl]-N-(3-acetyl-6-carboxy-1H-indol-4-yl)acetamide] | –
– | 860 µM | 558 µM | 560 ± 80 µM | 860 ± 100 µM | – | – | – | – | 327 µM | 121 µM | 120 ± 30 µM | 330 ± 1 µM | – | – | – | – | – | – | CC(=O)N(c1cccc(-c2ccc(C)o2)c1)[C@@H]1O[C@H](CO)[C@@H](O[C@@H]2O[C@H](CO)[C@H](O)[C@H](O)[C@H]2O)[C@H](O)[C@H]1O [Compound 3z, N-[4-O-(β-D-Galactopyranosyl)-β-D-glucopyranosyl]-N-[3-(5-methylfuran-2-yl)phenyl]acetamide] | –
